We go through 23 compounds from patent publication US10815222B2, “Compounds for use in the treatment of kinetoplastid infection” (C.N.C.C.S. S.c.a.r.l. COLLEZIONE NAZIONALE DEI COMPOSTI …, priority 2016, dated 2020).

Where two headings read alike, the source gives them in different places.

What all share (assay type): cell-based
The test system of test [1] is Bloodstream form of Trypanosoma brucei, strain Lister 427. Put plainly: Trypanosoma brucei growth inhibition assay (CellTiter-Glo, 24 h). The note with it: Trypanosoma brucei. The essentials: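 Growth read-out was CellTiter-Glo luminescence after 24 h at 37 °C incubation of 1500 bloodstream-form Lister 427 trypanosomes per well with compound, in supplemented IMDM containing 10% FBS and at most 0.25% DMSO.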
A general note: ATP-based viability assays read luminescence as a measure of living cells.

The next test has as its system HUVEC cells. Put plainly: HUVEC cytotoxicity assay (CellTiter Glo, 72 h). The note with it: Homo sapiens, read-out: Cell Proliferation HUVEC IC50. As for the experimental part: (§1) HeLa cells (ATCC® CCL2™) in DMEM (Dulbecco Modified Eagle's Medium) without phenol red, Thermo, 11880, USA+10% FBS+1× PenStrep+1× Gln or HUVEC cells (ATCC® CRL1730™) in EBM-2 (Endothelial Growth Basal Medium, Lonza, CC3156)+EGM-2 SingleQuotsTMSupplements and Growth Factors (Lonza, CC4176)+1× Penicyllin-Streptomycin (PenStrep, ThermoFisher)+1× Glutamine, are plated in a 384 well plate (Thermo, 4334-11, USA) to a density of 2000 cells per well and let recover for four hours at 37° C., 5% CO2 in a humidified atmosphere. After the recovery, compounds are transferred to assay plates as per compound preparation method. Assay plates are then incubated at 37° C., 5% CO2 in a humidified atmosphere for 72 hours. Cell viability is measured by the CellTiter Glo (Promega, G8080, USA) as per manufacturer instruction.

The subject of a further test is HeLa cells. Put plainly: HeLa cytotoxicity assay (CellTiter Glo, 72 h). The note with it: Homo sapiens, read-out: Cell Proliferation Hela IC50. On the procedure: as §1
Where [2] appears, read: T. Brucei Growth Inibition Assay, class symbols, read-out: T. Brucei GI EC50.
The mark [3] stands for this setting: Table 3, read-out: T. brucei GI EC50.

For `CCC(=O)CCCN1CCN(C(=O)Cc2c[nH]c3ccccc23)C(c2ncc(-c3ccc4ccccc4c3)[nH]2)C1` (centres unmarked), the EC50 (usually the concentration giving half of the maximal effect) in test [1] (setting [2]) is 0.1 to 0.5 µM; in test [1] (setting [3]), 0.489 µM. In addition, the IC50 in the test on HUVEC cells was 9.97 µM; in the test with HeLa cells, no less than 25 µM.

On to `CCC(=O)CCCN1CCN(C(=O)Cc2c[nH]c3ncccc23)C(c2ncc(-c3ccc4ccccc4c3)[nH]2)C1` (centres unmarked), for which the EC50 in test [1] (setting [2]) is 0.51 to 1 µM; in test [1] (setting [3]), 0.545 µM. The IC50 with HUVEC cells and with HeLa cells was no less than 25 µM throughout.

With `COc1nc2ccccc2cc1-c1cnc(C2CN(CC3CCOC3)CCN2C(=O)Cn2c(C)nc3ccccc32)[nH]1` (centres unmarked) [1-(2-(5-(2-methoxyquinolin-3-yl)-1H-imidazol-2-yl)-4-((tetrahydrofuran-3-yl)methyl)piperazin-1-yl)-2-(2-methyl-1H-benzo[d]imidazol-1-yl)ethan-1-one], the EC50 in test [1] (setting [2]) was 0.1 to 0.5 µM; in test [1] (setting [3]), 0.163 µM. Besides, the IC50 is no less than 25 µM in the test with HUVEC cells and 20.6 µM with HeLa cells.

Consider `CCC(O)CCCN1CCN(C(=O)Cc2c(C)[nH]c3ccc(OC)cc23)C(c2ncc(-c3ccc4ccccc4c3)[nH]2)C1` (centres unmarked) [1-(4-(4-hydroxyhexyl)-2-(5-(naphthalen-2-yl)-1H-imidazol-2-yl)piperazin-1-yl)-2-(5-methoxy-2-methyl-1H-indol-3-yl)ethan-1-one], for which the results for the EC50 in test [1] (setting [2]) and in test [1] (setting [3]) were less than 0.1 µM and 0.013 µM, respectively. The IC50 in the test on HUVEC cells came out at 9.27 µM; in the test with HeLa cells it was 13.1 µM.

On to `COc1ccc2[nH]c(C)c(CC(=O)N3CCN(CC4CC4)CC3c3ncc(-c4ccc5ccccc5c4)[nH]3)c2c1` (centres unmarked) [1-(4-(cyclopropylmethyl)-2-(5-(naphthalen-2-yl)-1H-imidazol-2-yl)piperazin-1-yl)-2-(5-methoxy-2-methyl-1H-indol-3-yl)ethan-1-one], for which the EC50 was less than 0.1 µM in test [1] (setting [2]) and 0.0176 µM in test [1] (setting [3]). The IC50 is 8.06 µM with HUVEC cells and no less than 25 µM with HeLa cells.

For `CCCCCCN1CCN(C(=O)Cc2c(C)[nH]c3ccc(OC)cc23)C(c2ncc(-c3ccc4ccccc4c3)[nH]2)C1` (centres unmarked) [1-(4-hexyl-2-(5-(naphthalen-2-yl)-1H-imidazol-2-yl)piperazin-1-yl)-2-(5-methoxy-2-methyl-1H-indol-3-yl)ethan-1-one], the EC50 in test [1] (setting [2]) was less than 0.1 µM; in test [1] (setting [3]), 0.0787 µM. The IC50 with HUVEC cells and in the test on HeLa cells was no less than 25 µM in each case.

`COc1ccc2nc(C(F)(F)F)n(CC(=O)N3CCN(Cc4ncnn4C)C[C@H]3c3ncc(-c4cc5ccccc5nc4OC)[nH]3)c2c1` [(S)-2-(6-methoxy-2-(trifluoromethyl)-1H-benzo[d]imidazol-1-yl)-1-(2-(5-(2-methoxyquinolin-3-yl)-1H-imidazol-2-yl)-4-((1-methyl-1H-1,2,4-triazol-5-yl)methyl)piperazin-1-yl)ethan-1-one]: the 50% effective concentration (EC50) in test [1] (setting [2]) lay in the range of 0.1 to 0.5 µM.

`COc1ccc2nc(C(F)(F)F)n(CC(=O)N3CCN(Cc4ccn(C)n4)C[C@H]3c3ncc(-c4cc5ccccc5nc4OC)[nH]3)c2c1` [(S)-2-(6-methoxy-2-(trifluoromethyl)-1H-benzo[d]imidazol-1-yl)-1-(2-(5-(2-methoxyquinolin-3-yl)-1H-imidazol-2-yl)-4-((1-methyl-1H-pyrazol-3-yl)methyl)piperazin-1-yl)ethan-1-one]: the EC50 in test [1] (setting [2]) was less than 0.1 µM.

`COc1ccc2nc(C(F)(F)F)n(CC(=O)N3CCN(Cc4cocn4)C[C@H]3c3ncc(-c4cc5ccccc5nc4OC)[nH]3)c2c1` [(S)-2-(6-methoxy-2-(trifluoromethyl)-1H-benzo[d]imidazol-1-yl)-1-(2-(5-(2-methoxyquinolin-3-yl)-1H-imidazol-2-yl)-4-(oxazol-4-ylmethyl)piperazin-1-yl)ethan-1-one]: in test [1] (setting [2]), the EC50 was less than 0.1 µM.

With `COc1ccc2nc(C(F)(F)F)n(CC(=O)N3CCN(Cc4cnccn4)C[C@H]3c3ncc(-c4cc5ccccc5nc4OC)[nH]3)c2c1` [(S)-2-(6-methoxy-2-(trifluoromethyl)-1H-benzo[d]imidazol-1-yl)-1-(2-(5-(2-methoxyquinolin-3-yl)-1H-imidazol-2-yl)-4-(pyrazin-2-ylmethyl)piperazin-1-yl)ethan-1-one], in test [1] (setting [2]), the EC50 is less than 0.1 µM.

`COc1ccc2nc(C(F)(F)F)n(CC(=O)N3CCN(Cc4ccnnc4)C[C@H]3c3ncc(-c4cc5ccccc5nc4OC)[nH]3)c2c1` [(S)-2-(6-methoxy-2-(trifluoromethyl)-1H-benzo[d]imidazol-1-yl)-1-(2-(5-(2-methoxyquinolin-3-yl)-1H-imidazol-2-yl)-4-(pyridazin-4-ylmethyl)piperazin-1-yl)ethan-1-one]: the EC50 in test [1] (setting [2]) is less than 0.1 µM.

Consider `COc1ccc2nc(C(F)(F)F)n(CC(=O)N3CCN(Cc4nccs4)C[C@H]3c3ncc(-c4cc5ccccc5nc4OC)[nH]3)c2c1` [(S)-2-(6-methoxy-2-(trifluoromethyl)-1H-benzo[d]imidazol-1-yl)-1-(2-(5-(2-methoxyquinolin-3-yl)-1H-imidazol-2-yl)-4-(thiazol-2-ylmethyl)piperazin-1-yl)ethan-1-one], for which the EC50 in test [1] (setting [2]) is less than 0.1 µM.

In the case of `COc1ccc2nc(C(F)(F)F)n(CC(=O)N3CCN(Cc4cscn4)C[C@H]3c3ncc(-c4cc5ccccc5nc4OC)[nH]3)c2c1` [(S)-2-(6-methoxy-2-(trifluoromethyl)-1H-benzo[d]imidazol-1-yl)-1-(2-(5-(2-methoxyquinolin-3-yl)-1H-imidazol-2-yl)-4-(thiazol-4-ylmethyl)piperazin-1-yl)ethan-1-one], in test [1] (setting [2]), the EC50 is less than 0.1 µM.

Consider `COc1ccc2nc(C(F)(F)F)n(CC(=O)N3CCN(Cc4nccs4)C[C@H]3c3nnc(-c4cc5ccccc5nc4OC)[nH]3)c2c1` [(S)-2-(6-methoxy-2-(trifluoromethyl)-1H-benzo[d]imidazol-1-yl)-1-(2-(5-(2-methoxyquinolin-3-yl)-4H-1,2,4-triazol-3-yl)-4-(thiazol-2-ylmethyl)piperazin-1-yl)ethan-1-one], for which the EC50 in test [1] (setting [2]) is less than 0.1 µM.

On to `COc1ccc2nc(C(F)(F)F)n(CC(=O)N3CCN(Cc4ccn(C)n4)CC[C@H]3c3ncc(-c4cc5ccccc5nc4OC)[nH]3)c2c1` [(S)-2-(6-methoxy-2-(trifluoromethyl)-1H-benzo[d]imidazol-1-yl)-1-(7-(5-(2-methoxyquinolin-3-yl)-1H-imidazol-2-yl)-4-((1-methyl-1H-pyrazol-3-yl)methyl)-1,4-diazepan-1-yl)ethan-1-one], for which, in test [1] (setting [2]), the EC50 is less than 0.1 µM.

Regarding `COc1ccc2nc(C)n(CC(=O)N3CCN(Cc4ccn(C)n4)C[C@H]3c3ncc(-c4cc5ccccc5nc4OC)[nH]3)c2c1` [(S)-2-(6-methoxy-2-methyl-1H-benzo[d]imidazol-1-yl)-1-(2-(5-(2-methoxyquinolin-3-yl)-1H-imidazol-2-yl)-4-((1-methyl-1H-pyrazol-3-yl)methyl)piperazin-1-yl)ethan-1-one], the EC50 in test [1] (setting [2]) was less than 0.1 µM.

In the case of `COc1ccc2nc(C)n(CC(=O)N3CCN(Cc4nncn4C)C[C@H]3c3ncc(-c4cc5ccccc5nc4OC)[nH]3)c2c1` [(S)-2-(6-methoxy-2-methyl-1H-benzo[d]imidazol-1-yl)-1-(2-(5-(2-methoxyquinolin-3-yl)-1H-imidazol-2-yl)-4-((4-methyl-4H-1,2,4-triazol-3-yl)methyl)piperazin-1-yl)ethan-1-one], the EC50 in test [1] (setting [2]) was in the range of 0.51 to 1 µM.

`COc1ccc2nc(C)n(CC(=O)N3CCN(Cc4cocn4)C[C@H]3c3ncc(-c4cc5ccccc5nc4OC)[nH]3)c2c1` [(S)-2-(6-methoxy-2-methyl-1H-benzo[d]imidazol-1-yl)-1-(2-(5-(2-methoxyquinolin-3-yl)-1H-imidazol-2-yl)-4-(oxazol-4-ylmethyl)piperazin-1-yl)ethan-1-one]: the EC50 in test [1] (setting [2]) is less than 0.1 µM.

Consider `COc1ccc2nc(C)n(CC(=O)N3CCN(CC4COC4)C[C@H]3c3ncc(-c4cc5ccccc5nc4OC)[nH]3)c2c1` [(S)-2-(6-methoxy-2-methyl-1H-benzo[d]imidazol-1-yl)-1-(2-(5-(2-methoxyquinolin-3-yl)-1H-imidazol-2-yl)-4-(oxetan-3-ylmethyl)piperazin-1-yl)ethan-1-one], for which the EC50 in test [1] (setting [2]) was less than 0.1 µM.

As to `COc1ccc2nc(C)n(CC(=O)N3CCN(Cc4cnccn4)C[C@H]3c3ncc(-c4cc5ccccc5nc4OC)[nH]3)c2c1` [(S)-2-(6-methoxy-2-methyl-1H-benzo[d]imidazol-1-yl)-1-(2-(5-(2-methoxyquinolin-3-yl)-1H-imidazol-2-yl)-4-(pyrazin-2-ylmethyl)piperazin-1-yl)ethan-1-one], the 50% effective concentration (EC50) in test [1] (setting [2]) is less than 0.1 µM.

In the case of `COc1ccc2nc(C)n(CC(=O)N3CCN(Cc4nccs4)C[C@H]3c3ncc(-c4cc5ccccc5nc4OC)[nH]3)c2c1` [(S)-2-(6-methoxy-2-methyl-1H-benzo[d]imidazol-1-yl)-1-(2-(5-(2-methoxyquinolin-3-yl)-1H-imidazol-2-yl)-4-(thiazol-2-ylmethyl)piperazin-1-yl)ethan-1-one], the EC50 in test [1] (setting [2]) is less than 0.1 µM.

`COc1nc2ccccc2cc1-c1cnc(C2COCCN2C(=O)OCc2ccccc2)[nH]1` (centres unmarked) [benzyl 3-(5-(2-methoxyquinolin-3-yl)-1H-imidazol-2-yl)morpholine-4-carboxylate]: the EC50 in test [1] (setting [2]) lay within 1.01 to 5 µM.

`CCC(=O)CCCN1CCN(C(=O)Oc2ccccc2)C(c2ncc(-c3ccc4ccccc4c3)[nH]2)C1` (centres unmarked) [phenyl 2-(5-(naphthalen-2-yl)-1H-imidazol-2-yl)-4-(4-oxohexyl)piperazine-1-carboxylate]: the EC50 in test [1] (read-out: T. Brucei GI EC50) was 1.01 to 5 µM.
